{"source": "patent US20080221074A1", "about": "“Drug Screen and Treatment Method” (priority 2006, published 2008)", "key": {"NF-κB": {"system": "NF-κB", "assay": "inhibition of NF-κB activation in NF-κB-bla THP-1 cells after LPS stimulation", "type": "cell-based, human", "excerpt": "Inhibition of NF-κB in vitro. […] Activation of NF-κB increases expression of a number of genes that mediate inflammation. This protocol used human THP-1 cells, which are human mononuclear blood cells with a monocyte phenotype. The cell line, referred to as NF-κB-bla THP-1, contained a β-lactamase reporter gene under the control of the NF-kB response element (Invitrogen, CellSensor™, product No. K1176). In this cell line, the β-lactamase reporter gene is stably integrated in the THP-1 cells. This cell line was used to detect agonists or antagonists of the NF-κB signaling pathway. These NF-κB-bla THP-1 cells respond to the presence of tumor necrosis factor alpha (TNFα) or bacterial lipopolysaccharide (LPS) by increased expression of the β-lactamase reporter gene. The level of β-lactamase enzyme activity was measured by fluorescence resonance energy transfer ratiometric detection. TNFα and LPS are both potent inflammation-inducing agents that activate NF-κB in THP1 cells. In this assay, compounds that decrease NF-κB activity, and thus β-lactamase, in the presence of TNFα or LPS are exerting an anti-inflammation activity.\nThe NF-κB-bla THP-1 cells were maintained by passaging or feeding as needed. […] The cells were plated at 20,000 cells/well in a 384-well Black-wall, clear bottom assay plates (Costar#3712-TC low fluorescence background plates) approximately 24 hours before adding either TNFα at 10 ng/mL or LPS at 0.2 ng/mL to activate NF-κB.\nThe assays were usually conducted 2-4 times for each compound and the values shown below are averages for each compound."}, "[1]": {"system": "carrageenan-λ induced pleurisy", "assay": "carrageenan-λ induced lung (pleural cavity) inflammation", "type": "in vivo, CD1 male mice", "details": "exudate 4 h after", "excerpt": "Treatment of lung inflammation. Three compounds, 3β,16α-dihydroxy-17-oxoandrostane, 3α,16β,17β-trihydroxyandrostane and 3α,16α,17α-trihydroxyandrostane were used to treat inflammation in mice essentially as described (D. Auci et al., Ann. New York Acad. Sci. 1051:730-742 2005). Five to 8 week old CD1 male mice (Charles River, Calco, Italy) were used for the study. The animals were housed in a controlled environment and provided with standard rodent chow and water. Animal care was in compliance with applicable regulations on protection of animals. Mice were allocated into one of the following groups: (1) mice treated with 2% carrageenan-k in saline (carrageenan-λ treated control group), (2) mice treated with 0.1 mg, 0.01 mg or 0.001 mg 3β,16α-dihydroxy-17-oxoandrostane by subcutaneous (s.c.) injection 24 h and 1 h before carrageenan-λ administration, (3) mice treated with 0.1 mg, 0.01 mg or 0.001 mg of 3α,16α,17α-trihydroxyandrostane by s.c. injection 24 and 1 h before carrageenan; (4) mice treated with 0.1 mg, 0.01 mg or 0.001 mg […],16β,17β-trihydroxyandrostane by s.c. injection 24 h and 1 h before carrageenan-λ administration; (5) mice treated with vehicle (0.1% carboxymethylcellulose, 0.9% saline, 2% tween 80, 0.05% phenol) s.c. 24 h and 1 h before carrageenan-λ administration; (6) mice treated with rabbit anti-mouse polyclonal anti-TNF-α antibody (200 μg) given as an intraperitoneal bolus 24 h and 1 h before carrageenan-λ administration (positive control group); and (7) sham-operated mice that were not treated with carrageenan-λ. Each group consisted of 10 mice. All treatments were given in a final volume of 100 μL. Lung (pleural cavity) inflammation was induced as follows. The mice were anaesthetised with isoflurane and a skin incision was made at the level of the left sixth intercostal space. The underlying muscle was dissected and either 0.1 mL saline (control) or 0.1 mL saline containing 2% λ-carrageenan was injected into the pleural cavity. The carrageenan-λ is a potent inducer of inflammation, which is manifested in this protocol by accumulation of fluid and neutrophils in the pleural cavity. The incision was closed with a suture and the animals were allowed to recover.\nAt 4 h after the injection of carrageenan-λ, the animals were euthanized by exposure to CO2. The chest was carefully opened and the pleural cavity rinsed with 1 mL of saline solution containing heparin (5 U/mL) and indomethacin (10 μg/mL). The exudate and washing solution were removed by aspiration and the total volume measured. Any exudate contaminated with blood was discarded. The amount of exudate was calculated by subtracting the injected 1 mL volume from the total pleural cavity volume that was recovered. The neutrophils in the exudate were suspended in phosphate-buffer saline and counted with an optical microscope in a Burker's chamber after Trypan Blue staining. The results were analysed by one-way ANOVA followed by a Bonferroni post-hoc test for multiple comparisons. A p-value less than 0.05 was considered significant. For statistical analysis each group was compared to the control group of mice that were challenged with carrageenan-k and received no other treatment.\nThe table below describes the number of neutrophils from the treated animal groups relative to untreated control animals that were exposed to carrageenan-λ, but not treated with anything else (negative control group). The neutrophil number for the negative control group was set at 100% and other groups were compared to this."}, "[2]": {"system": "human MG-63 osteosarcoma cell line", "assay": "reversal of dexamethasone effects in MG-63 osteoblasts", "type": "cell-based", "details": "for reversal of the decrease in osteoprotegerin synthesis: 30 nM dexamethasone, compound concentration stated with each value (17α-ethynyl triol: 1 nM)"}, "EAE": {"system": "EAE", "assay": "PLP-induced EAE, treatment from clinical onset", "type": "in vivo, female SJL mice", "details": "for course of EAE compared to vehicle-treated mice / mean cumulative score, treatment period: 0.1 mg q.d. po from clinical onset; for mean cumulative score, treatment period: day 1 to 30; for mean cumulative score, follow-up period: day 31 to day 54, post treatment", "procedure": "The protocol for conducting the EAE animal model was described in (D. Auci et. al., Ann. NY. Acad. Sci. USA, 1051:730-42, 2005). Female SJL mice (6-8 week old, average body weight of 25 g) obtained from Charles-River were kept under standard laboratory conditions (non specific pathogen germ free) with ad libitum food and water and were allowed to adapt one week to their environment before commencing the study. […] EAA was induced with 200 μL of a 1:1 emulsion of 75 μg proteolipid protein (PLP) and 6 mg/mL Mycobacterium tuberculosis H37RA in complete Freund's adjuvant (CFA). The 200 μL injection was divided among four sites that drained into the auxiliary and inguinal lymphnodes. Pertussis toxin was used as a co-adjuvant and was administered i.p. at 200 ng/mouse on day zero and day two post immunization. Groups were treated with 0.1 mg of compound in 100 μL vehicle, or with vehicle alone, q.d. po (oral gavage) starting at clinical onset of disease and continuing through to day 30 post immunization. […] Clinical grading was carried out by an observer unaware of the treatment: 0=no illness, 1=flaccid tail, 2=moderate paraparesis, 3=severe paraparesis, 4=moribund state, 5=death."}, "[3]": {"details": "LPS stimulation, 50% of the compound's maximum inhibition, averages, read-out: IC50"}}, "note": "Where two headings read alike, the source gives them in different places."}
{"compound": "3α,17α-ethynylandrostane-3α/β,17β-diol", "values": [{"measurement": "IC50", "setting": "NF-κB; [3]", "value": 0.2, "unit": "nM"}]}
{"compound": "C[C@]12CC[C@H]3[C@@H](CCC4C[C@H](O)CC[C@@]43C)[C@@H]1C[C@H](O)[C@@H]2O", "note": "(stereo partly drawn) [3α,16β,17β-trihydroxyandrostane]", "values": [{"measurement": "number of neutrophils relative to negative control group (set at 100%)", "setting": "[1]; 0.001 mg s.c. 24 h and 1 h before carrageenan-λ", "value": 95, "unit": "%"}, {"measurement": "number of neutrophils relative to negative control group (set at 100%)", "setting": "[1]; 0.01 mg s.c. 24 h and 1 h before carrageenan-λ", "value": 50, "unit": "%"}, {"measurement": "number of neutrophils relative to negative control group (set at 100%)", "setting": "[1]; 0.1 mg s.c. 24 h and 1 h before carrageenan-λ", "value": 42, "unit": "%"}]}
{"compound": "C[C@]12CC[C@H]3[C@@H](CCC4=C[C@H](O)CC[C@@]43C)[C@@H]1CC[C@@H]2O", "note": "[3α,17β-dihydroxyandrost-4-ene]", "values": [{"measurement": "dexamethasone induced 11β-HSD mRNA", "setting": "[2]; similar protocols", "value": "decrease"}, {"measurement": "dexamethasone-induced suppression of IL-8 and IL-6", "setting": "[2]; similar protocols", "value": "statistically significant reversal"}]}
{"compound": "C[C@]12CC[C@H]3[C@@H](CC=C4C[C@](O)(C(F)(F)C(F)(F)F)CC[C@@]43C)[C@@H]1CC[C@@H]2O", "note": "[3α-pentafluoroethylandrost-5-ene-3β,17β-diol]", "values": [{"measurement": "maximum inhibition of NF-κB", "setting": "NF-κB", "value": 50, "unit": "%"}]}
{"compound": "C[C@]12CC[C@H]3[C@@H](CC=C4C[C@](O)(C(F)(F)F)CC[C@@]43C)[C@@H]1CC[C@@H]2O", "note": "[3α-trifluoromethylandrost-5-ene-3β,17β-diol]", "values": [{"measurement": "course of EAE compared to vehicle-treated mice", "setting": "EAE", "value": "significantly improved course of EAE"}, {"measurement": "mean cumulative score, treatment period", "setting": "EAE", "value": "11.2±4.8"}, {"measurement": "mean cumulative score, follow-up period", "setting": "EAE", "value": "10.8±10.3"}]}
{"compound": "C[C@]12CC[C@H](O)CC1=C[C@H](O)[C@@H]1[C@@H]2CC[C@@]2(C)[C@H]1CC[C@]2(C)O", "note": "[3β,7β,17β-trihydroxy-17α-methylandrost-5-ene]", "values": [{"measurement": "reversal of the decrease in osteoprotegerin synthesis", "setting": "[2]", "value": "normal osteoprotegerin levels at 10 nM"}]}
{"compound": "CC12CCC(O)CC1=CC(O)C1C2CCC2(C)C1CCC2(O)C(F)(F)F", "note": "(stereo not drawn) [3β,7β,17β-trihydroxy-17α-trifluoromethylandrost-5-ene]", "values": [{"measurement": "reversal of the decrease in osteoprotegerin synthesis", "setting": "[2]", "value": "normal or basal osteoprotegerin levels at 1 μM compound"}]}
{"compound": "CC12CCC(O)CC1=CC(=O)C1C2CCC2(C)C1CCC2(C)O", "note": "(stereo not drawn) [3β,17β-dihydroxy-7-oxo-17α-methylandrost-5-ene]", "values": [{"measurement": "reversal of the decrease in osteoprotegerin synthesis", "setting": "[2]", "value": "increased osteoprotegerin levels at 100 nM"}]}
{"compound": "C[C@]12CC[C@H](O)C[C@@H]1CC[C@@H]1[C@@H]2CC[C@]2(C)[C@@H](O)C(=NO)C[C@@H]12", "note": "[5α-androstane-3β,17β-diol-16-oxime]", "values": [{"measurement": "course of EAE compared to vehicle-treated mice", "setting": "EAE", "value": "very similar to that observed in the vehicle-treated mice"}]}
{"compound": "C[C@]12CCCCC1=CC[C@@H]1[C@@H]2CC[C@]2(C)C(=O)[C@H](F)C[C@@H]12", "note": "[16α-fluoroandrost-5-ene-17-one]", "values": [{"measurement": "IC50", "setting": "NF-κB; Homo sapiens, THP-1", "value": 0.03, "unit": "nM"}]}
{"compound": "C[C@]12CC[C@H](O)C[C@@H]1CC[C@@H]1[C@@H]2CC[C@]2(C)C(=O)[C@H](I)C[C@@H]12", "note": "[16α-iodoepiandrosterone]", "values": [{"measurement": "IC50", "setting": "NF-κB; [3]", "value": 1.9, "unit": "nM"}]}
{"compound": "C[C@]12CC[C@H](O)C[C@@H]1CC[C@@H]1[C@@H]2CC[C@]2(C)C(=O)[C@@H](Br)C[C@@H]12", "note": "[16β-bromoepiandrosterone]", "values": [{"measurement": "maximum inhibition of NF-κB", "setting": "NF-κB", "value": 100, "unit": "%"}, {"measurement": "IC50", "setting": "NF-κB; [3]", "value": 600, "unit": "nM"}]}
{"compound": "C#C[C@]1(O)CC[C@H]2[C@@H]3CCC4=CC(=O)CC[C@]4(C)[C@H]3CC[C@@]21C", "note": "[17α-ethynylandrost-4-ene-3-one-17β-ol]", "values": [{"measurement": "maximum inhibition of NF-κB", "setting": "NF-κB", "value": 80, "unit": "%"}]}
{"compound": "C[C@]12CC[C@H](O)CC1=CC[C@@H]1[C@@H]2CC[C@@]2(C)[C@H]1CC[C@@]2(O)C(F)(F)F", "note": "[17α-trifluoromethylandrost-5-ene-3β,17β-diol]", "values": [{"measurement": "course of EAE compared to vehicle-treated mice", "setting": "EAE", "value": "significantly improved course of EAE"}]}
{"compound": "C#C[C@@]1(O)CC[C@H]2[C@@H]3[C@@H](O)C=C4C[C@@H](O)CC[C@]4(C)[C@H]3CC[C@@]21C", "note": "[17β-ethynylandrost-5-ene-3β,7β,17α-triol]", "values": [{"measurement": "mean cumulative score, treatment period", "setting": "EAE", "value": "14.9±17.6"}, {"measurement": "mean cumulative score, follow-up period", "setting": "EAE", "value": "18.4±20.6"}, {"measurement": "EAE incidence", "setting": "EAE; end of the follow-up period", "value": 85.7, "unit": "%"}, {"measurement": "EAE incidence", "setting": "EAE; end of the treatment period", "value": 57.1, "unit": "%"}]}
{"compound": "Cc1cc(C)c(/C=C2\\C(=O)Nc3ccccc32)[nH]1", "note": "[SU5416, Z-3-[(2,4-dimethylpyrrol-5-yl)methylidenyl]-2-indolinone, reference compound]", "values": [{"measurement": "course of EAE compared to vehicle-treated mice", "setting": "EAE", "value": "very similar to that observed in the vehicle-treated mice"}]}
{"compound": "C[C@]12CC[C@H]3[C@@H]([C@H](O)C=C4C[C@@H](O)CC[C@@]43C)[C@@H]1C[C@@H](O)[C@@H]2O", "note": "[androst-5-ene-3β,7α,16α,17β-tetrol]", "values": [{"measurement": "reversal of the decrease in osteoprotegerin synthesis", "setting": "[2]", "value": "near normal osteoprotegerin levels at 10 nM"}]}
{"compound": "C[C@]12CC[C@H]3[C@@H](C(=NO)C=C4C[C@@H](O)CC[C@@]43C)[C@@H]1CC[C@@H]2O", "note": "[androst-5-ene-3β,17β-diol-7-oxime]", "values": [{"measurement": "reversal of the decrease in osteoprotegerin synthesis", "setting": "[2]", "value": "partially reversed the decrease in osteoprotegerin"}]}
